Data taken from US12516095B2, “Peptide hormone analogues” (IP2IPO INNOVATIONS LIMITED, priority 2019, dated 2026).
Starred links: 1 amine or outer side, 2 acyl side, 3 side chain; linkers in the order of their positions; H or OH if unused. Non-standard residues stand in square brackets, D forms with d. Residues, ends and D or L forms follow the SMILES beside them. Groups on a side chain read outwards from the residue. *: point of attachment. C20 diacid = O=C(O)CCCCCCCCCCCCCCCCCCC(=O)*; C18 diacid = O=C(O)CCCCCCCCCCCCCCCCC(=O)*; γGlu = O=C(O)[C@H](CCC(=O)[*:2])N[*:1]; Aib = CC(C)(N)C(=O)O

Assay: PK measurements for half life assessment in pigs
Assay type: in vivo, pig
Details: male, large white, pig, plasma, sc, single subcutaneous injection, time from tmax to half of Cmax, typically mean of four animals
Protocol: Male large white pigs receive a single subcutaneous injection of the test compound at the start of study (0 hours). Repeated blood samples were taken from the pig over the proceeding 168 hours and plasma separated and stored at −20 to −80° C. Plasma concentration of the test compound was quantified using a radioimmunoassay or mass spectrum analysis. Time taken from tmax to half of Cmax was calculated and represents the half-life (t½) of the compound. Typically, the presented t½ is the mean of four separate animals.

| half-life | SMILES |
| --- | --- |
| 112 h | CC[C@H](C)[C@H](NC(=O)[C@H](Cc1ccccc1)NC(=O)[C@H](CCC(=O)O)NC(=O)[C@H](Cc1c[nH]cn1)NC(=O)[C@H](C)NC(=O)[C@H](CCCNC(=N)N)NC(=O)[C@H](CCCCN)NC(=O)[C@H](C)NC(=O)[C@H](CC(=O)O)NC(=O)[C@H](CC(C)C)NC(=O)[C@H](Cc1ccc(O)cc1)NC(=O)[C@H](CCCCN)NC(=O)[C@H](CO)NC(=O)[C@H](Cc1ccc(O)cc1)NC(=O)[C@H](CC(=O)O)NC(=O)[C@H](CO)NC(=O)[C@@H](NC(=O)[C@H](Cc1ccccc1)NC(=O)[C@@H](NC(=O)CNC(=O)[C@H](Cc1c[nH]cn1)NC(=O)C(C)(C)NC(=O)[C@@H](N)Cc1c[nH]cn1)[C@@H](C)O)[C@@H](C)O)C(=O)N[C@@H](CCC(=O)O)C(=O)N[C@@H](Cc1c[nH]c2ccccc12)C(=O)N[C@@H](CC(C)C)C(=O)N[C@@H](CC(C)C)C(=O)N[C@@H](CCC(N)=O)C(=O)N[C@@H](CO)C(=O)N[C@@H](Cc1c[nH]cn1)C(=O)N[C@@H](CCC(N)=O)C(=O)N[C@@H](CCC(N)=O)C(=O)N[C@@H](Cc1c[nH]cn1)C(=O)N[C@@H](CO)C(=O)N1CCC[C@H]1C(=O)N1CCC[C@H]1C(=O)N1CCC[C@H]1C(=O)N[C@@H](CCCCNC(=O)[C@H](CO)NC(=O)CNC(=O)CC[C@H](NC(=O)CCCCCCCCCCCCCCCCC(=O)O)C(=O)O)C(=O)O [Example 507] (H-H[Aib]HGTFTSDYSKYLDAKRAHEFIEWLLQSHQQHSPPPK([Ser-Gly-γGlu-C18 diacid])-OH) |
| 83 h | CC[C@H](C)[C@H](NC(=O)[C@H](Cc1ccccc1)NC(=O)[C@H](CCC(=O)O)NC(=O)[C@H](CCC(N)=O)NC(=O)[C@H](C)NC(=O)[C@H](CCCNC(=N)N)NC(=O)[C@H](CCCCN)NC(=O)[C@H](C)NC(=O)[C@H](CC(=O)O)NC(=O)[C@H](CC(C)C)NC(=O)[C@H](Cc1ccc(O)cc1)NC(=O)[C@H](CCCCN)NC(=O)[C@H](CO)NC(=O)[C@H](Cc1ccc(O)cc1)NC(=O)[C@H](CC(=O)O)NC(=O)[C@H](CO)NC(=O)[C@@H](NC(=O)[C@H](Cc1ccccc1)NC(=O)[C@@H](NC(=O)CNC(=O)[C@H](Cc1c[nH]cn1)NC(=O)C(C)(C)NC(=O)[C@@H](N)Cc1c[nH]cn1)[C@@H](C)O)[C@@H](C)O)C(=O)N[C@@H](CCC(=O)O)C(=O)N[C@@H](Cc1c[nH]c2ccccc12)C(=O)N[C@@H](CC(C)C)C(=O)N[C@@H](CC(C)C)C(=O)N[C@@H](CCC(N)=O)C(=O)N[C@@H](CO)C(=O)N[C@@H](Cc1c[nH]cn1)C(=O)N[C@@H](CCC(N)=O)C(=O)N[C@@H](Cc1c[nH]cn1)C(=O)N1CCC[C@H]1C(=O)N[C@@H](CO)C(=O)N1CCC[C@H]1C(=O)N1CCC[C@H]1C(=O)N1CCC[C@H]1C(=O)N[C@@H](CCCCNC(=O)CC[C@H](NC(=O)CCCCCCCCCCCCCCCCCCC(=O)O)C(=O)O)C(=O)O [Example 544] (H-H[Aib]HGTFTSDYSKYLDAKRAQEFIEWLLQSHQHPSPPPK([γGlu-C20 diacid])-OH) |
